Assay results as given in patent publication US20060084064A1, “Endocan compositions and methods for the treatment of neoplasms” (priority 2003, published 2006).

B1: placenta growth factor (PlGF): Recombinant human placenta growth factor purchased from R&D Systems (protein, UniProt P49763 19-221, looked up)
Placenta growth factor: LPAVPPQQWALSAGNGSSEVEVVPFQEVWGRSYCRALERLVDVVSEYPSEVEHMFSPSCVSLLRCTGCCGDENLHCVPVETANVTMQLLKIRSGDRPSYVELTFSQHVRCECRHSPGRQSPDMPGDFRADAPSFLPPRRSLPMLFRMEWGCALTGSQSAVWPSSPVPEEIPRMHPGRNGKKQQRKPLREKMKPERCGDAVPRR

Experiments:
endocan mRNA in HUVECs = test: Endocan mRNA expression in serum-starved HUVECs (Northern blot); assay type: cell-based, human; details: for Inhibition of endocan induction by tumor cell-conditioned medium / Inhibition of endocan induction by VEGF: HUVECs preincubated 30 minutes with 5 μM BIM; for Inhibition of endocan induction by tumor cell-conditioned medium: 20 μM LY294002 or 50 μM PD98059 before 6 hour treatment, FIG. 3H; for Inhibition of endocan induction by VEGF: 20 μM LY294002, 50 μM PD98059 or 20 μM SU1498 before 6 hour treatment with 20 ng/ml VEGF, FIGS. 3G; for Inhibition of endocan induction by VEGF / Effect of growth factor addition on endocan mRNA: 3I; for Effect of growth factor addition on endocan mRNA: growth factor added to serum-starved HUVECs, FIGS. 3D-3F
Experimental: Human non-small lung cancer cells (NCI-H1437, ATCC (American Type Culture Collection) CRL-5872) and rat glioma cells (C6, ATCC CCL-107) were grown in DMEM (Life Technologies Inc., Gaithersburg, Md.) containing 10% FBS (Life Technologies Inc.). Human renal cell carcinoma cells (786-0, ATCC CRL-1932) were maintained in RPMI 1640 (Life Technologies Inc.) containing 10% FBS. HUVECs, human epidermal keratinocytes and human renal tubule epithelial cells were obtained from Clonetics (San Diego, Calif.) and grown in EGM-2-MV, KGM and REGM, respectively (Clonetics). All cells were maintained at 37° C. under 5% CO2 in humidified air. Endothelial cells were grown to 90% confluence, serum-starved overnight in EBM-2 medium containing 0.5% FBS and incubated in the absence or presence of tumor cell-conditioned medium or growth factors at the doses and for the times indicated. Unless otherwise stated, endothelial cells were incubated with 20 ng/ml VEGF for 6 hours. In inhibition studies, serum-starved endothelial cells were preincubated with 5 μM BIM, 20 μM LY294002, 50 μM PD98059, or 20 μM SU1498 for 30 minutes before a 6 hour treatment with tumor conditional medium or VEGF. For neutralization studies, tumor conditional medium or growth factors were preincubated with antibodies for 1 hour at 37° C. and the mixture was then added to serum-starved HUVECs.
Cultured cells and tissues were harvested for total RNA extraction, using the Trizol reagent (Life Technologies). Five μg total RNA from cells or 10 μg RNA from tissues were loaded on a 0.7% formaldehyde-containing agarose gel. The RNA was transferred to nylon membrane, covalently cross-linked by UV radiation, prehybridized for 6 hours, and hybridized for 18 hours at 42° C. with 10^6 cpm/ml [^32P] dCTP-labeled human endocan, mouse endocan, mouse vWF, or mouse VEGF cDNA probe.

Flt-1 in HUVECs = details: VEGF added to HUVECs; Wang et al. 2000; cited from earlier work
Flk-1 kinase = details: selective inhibitor of Flk-1 kinase, obtained from Calbiochem; cited from earlier work

Molecule	Inhibition of endocan induction by tumor cell-conditioned medium (endocan mRNA in HUVECs)	Inhibition of endocan induction by VEGF (endocan mRNA in HUVECs)	Effect of growth factor addition on endocan mRNA (endocan mRNA in HUVECs)	further results
COc1cccc(-c2cc(=O)c3ccccc3o2)c1N [PD90985]	not			
CN(C)CCCn1cc(C2=C(c3c[nH]c4ccccc34)C(=O)NC2=O)c2ccccc21 [BIM, Bisindolylmaleimide I]	completely inhibited	completely inhibited		
VEGF			time and dose dependent increase	Cell surface expression of Flt-1 (Flt-1 in HUVECs): reduced; Flt-1 mRNA (Flt-1 in HUVECs): increased
CC(C)c1cc(/C=C(\C#N)C(=O)NCCCc2ccccc2)cc(C(C)C)c1O [SU1498]		blocked		IC50 (Flk-1 kinase): 700 nM
B1			did not alter	
